Experimental data: patent publication US6995136B1, “Peptide fragments of murine epidermal growth factor as laminin receptor targets” (The Queen's University of Belfast, priority 1998, dated 2006)
Non-standard residues stand in square brackets, D forms with d. Residues, ends and D or L forms follow the SMILES beside them. No end group written: not given here. *: point of attachment. Tic‑OH = tetrahydroisoquinoline-3-carboxylic acid (hydroxy-substituted), constrained Tyr mimetic; Cit = NC(=O)NCCC[C@H](N)C(=O)O; Acm = CC(=O)NC*

Key:
[1] = target: T1, 67 kDa laminin receptor (67-LR) (Homo sapiens, UniProt P08865); experiment: 125I-laminin displacement (competition binding) on T47-D or SK HEP-1 cells; conditions: relative to mEGF(33-42); 0.1 nM 125I-laminin, overnight 4° C.
T1 construct: endogenous in cells; host or cells: T47-D or SK HEP-1 cells (whole-cell suspension)
Protocol: ^125I-laminin was prepared using ^125I-labelled sodium iodide (Amersham, UK) and immobilised chloramine-T (Iodobeads; Pierce, Ill.). Prior to use, the beads were washed with 500 μl phosphate buffer (pH 6.5) to remove excess reagent from the support. These were then allowed to air dry and individual beads added to a solution of carrier free Na^125I, diluted with iodination buffer (phosphate buffer pH 7.4). The beads were allowed to equilibrate for 5 min.
Laminin (10 μg in 10 μl) was then diluted into the iodination buffer and the system incubated at 20° C. for 15 min. The solution was then removed from the reaction vessel and excess Na^125I and unincorporated ^125I2 separated from the iodinated protein by gel filtration on a GF-5 exclusion column (Pierce, Ill.). Iodinated laminin fractions were recovered at a specific activity of approximately 1.2 mCi/mg protein (864 Ci/mmol).
Near confluent cultures of T47-D or SK HEP-1 cells were removed from monolayer with 0.02% EGTA and passed through a G-25 syringe needle to produce single cell suspensions. Aliquots of each cell type (10^6 cells/ml) were dispensed into separate Ependorf tubes (1 ml each) and pelleted. The cells were then resuspended in 1 ml ice-cold RPMI (SK HEP-1) or DMEM (T47-D) containing 0.1% BSA and either laminin or synthetic peptide at the concentrations indicated. Iodinated laminin was then added to each cell suspension to give a final ^125I-laminin concentration of 0.1 nM (approximately 50,000 cpm). These mixtures were incubated overnight at 4° C.
The tubes were then microfuged at 10,000 g and the supernatant removed. After washing the pellet with 500 μl CFS, the remaining radioactivity was determined using a gamma radiation counter. Non-specific binding was determined by incubating cells with a 1000-fold molar excess of unlabelled laminin. All estimations were carried out in triplicate.
(§1) IC50 (concentration of unlabelled peptide required to produce 50% inhibition of radioligand binding) and EC50 (effective concentration for 50% inhibition of cell attachment) values were calculated using the Grafit curve-fitting programme (Erithacus Software, London, UK).

[2] = tested on: cell attachment to laminin through the 67-LR (T-47D, SK HEP-1); experiment: Laminin attachment assay; type: cell-based, human; conditions: relative to mEGF(33-42)
Protocol: Non-tissue culture grade 96-well plates, coated with 2.5 μg murine laminin in 50 μl CFS per well, were air-dried overnight at room temperature. […] After rinsing with CFS (100 μl), the plastic was saturated with casein (0.2% in CFS). Plates were incubated at room temperature for 45 min then washed extensively with CFS (3×100 μl).
After removal of culture media, cells were detached from monolayers by the action of EGTA (0.02% in CFS) at 37° C. The cells were then centrifuged at 800 g for 2 min and the pellet resuspended in DMEM (T-47D) or RPMI (SK HEP-1).
Cells, at a population density of 10^6 cells/ml, were then aliquoted (1 ml) into microfuge tubes containing the individual peptide sequences and incubated for 1 h at 37° C. The cells (100 μl aliquots) were then added to the pre-coated multi-well plates and incubated for a further 60 min. Incubation media were removed and the wells washed with CFS (3×100 μl) to rid the plates of non-adherent cells.
Attached cell numbers were evaluated spectrophotometrically at 620 nm after fixing with 10% formaldehyde and staining with crystal violet.
as §1

[3] = tested on: trypsin-like proteases; experiment: Resistance to trypsin degradation; type: in vitro ADME
[4] = tested on: Endothelial cells (SK HEP-1 and BRCE); experiment: Migration assay (colloidal gold track area); type: cell-based; conditions: endothelial cells, 18 h
Protocol: The method used was basically as described by Albrecht-Buehler (1977). Briefly, coverslips (22×22 mm) were treated in 5% detergent (7×; ICN Biomedicals) and washed in alcohol to remove grease. After drying, they were immersed in gelatin solution (Sigma, 300 Bloom; 0.5 g in 300 ml distilled H2O) for 10 min. The coverslips were then dried by placing in a 70° C. oven for 45 min.
Colloidal gold suspension was prepared by adding 11 ml distilled H2O and 6 ml Na2CO3 (36.5 mM) to 1.8 ml AuHCl4 (14.5 mM). The mixture was heated to 95° C. at which point 1.8 ml of freshly prepared 0.1% formaldehyde solution was added; the temperature was maintained at 95° C. A suspension of colloidal gold was formed which was brown to absorbed light and blue to transmitted light.
The gold suspension, was then added to petri dishes containing individual coverslips and the plates incubated at 37° C. for 45 min. After washing with CFS (3×4 ml) to remove unattached gold particles, the coverslips were transferred to 6-well cluster dishes and UV sterilised.
Endothelial cells (SK HEP-1 and BRCE) in culture media (0.3 ml) were seeded onto the coverslips at an approximate density of 5×10^3 cells per well. The cells were allowed to plate down for 2 h at 37° C. after which the treatments were added. Assay systems were maintained for a further 18 h after which the cells were fixed using 3% gluteraldehyde in cacodylate buffer (pH 7.2).
The assays were examined using a Leica DM1RB phase contrast microscope and Q500MC image analysis system incorporating a JVC TK-1280E colour camera (Leica, Milton Keynes, UK). The track images of at least 30 cells were videocaptured and the area (representing migration response) determined for each. Statistical analysis of these areas was then carried out using Macintosh Instat software to perform both Kruskal-Wallis analysis of variance and Mann-Whitney U-tests in order to compare the treatment groups with controls.

[5] = target: T2, 67-LR (Homo sapiens, UniProt P08865); experiment: Peptide screening for receptor interaction, cell adhesion and motility properties; type: cell-based
T2 construct: endogenous in cells
Description: In addition, using residue exchange between the two peptides and molecular modelling to predict three-dimensional structure, we wished to further investigate the role of individual mEGF(33-42) residues in laminin antagonism. A logical series of peptides was synthesised and screened for receptor interaction, cell adhesion and motility properties (Table 1a and 1b).

[6] = tested on: Endothelial cells (SK HEP-1 and BRCE); conditions: shown previously; cited from earlier work
[7] = tested on: angiogenesis in the chick; experiment: Chick angiogenesis model; type: in vivo; conditions: laminin-stimulated; model not stated at the place (Nelson et al 1995)
[8] = tested on: angiogenesis in the chick; conditions: shown previously; cited from earlier work
[9] = target: T3, 67 kDa laminin receptor (Homo sapiens, UniProt P08865); experiment: Cell attachment to biotinylated mEGF(33-42) with anti-laminin receptor or anti-EGF receptor antibodies; type: cell-based
T3 construct: endogenous in cells
Protocol: Briefly, 96-well plates were coated with 100 μl/well streptavidin (5 μg/ml in carbonate buffer pH 9.6) and following an overnight incubation at 37° C., wells were washed with CFS (3×100 μl) and the plastic blocked with casein (0.2% in CFS). The plates were then incubated at room temperature for 45 min and washed with CFS as previously detailed. Biotinylated mEGF(33-42) in CFS was then aliquoted into the wells (0.1 ml of 100 μM) and the plates incubated for 3 h at 37° C.
After a further block with 0.2% casein, the wells were washed with CFS (3×100 μl aliquots). Plates were kept at 4° C. and used within 2 h.
Cells were prepared as above and pre-incubated for 1 h at 37° C. with serial dilutions of anti-laminin receptor polyclonal (see below) or anti-EGF (R1) receptor monoclonal antibodies. Subsequent procedures were as detailed for the laminin attachment assay.

Compound | receptor affinity, 125I-laminin displacement (IC50), in words [1] | inhibition of cell attachment (adhesion) to laminin (EC50), in words [2] | migration (motility) response: laminin agonist or antagonist [4] | further results
CAIGYSGDRC [peptide VII, alanine scan of mEGF(33-42): Ala for Val] | dramatic decrease in receptor affinity | parallel decrease in their ability to block adhesion to laminin |  | 
CC[C@H](C)[C@H](NC(=O)[C@@H](NC(=O)[C@H](CSCNC(C)=O)NC(C)=O)C(C)C)C(=O)NCC(=O)N[C@@H](Cc1ccc(O)cc1)C(=O)N[C@@H](CO)C(=O)NCC(=O)N[C@@H](CC(=O)O)C(=O)N[C@@H](CCCNC(N)=O)C(=O)N[C@@H](CSCNC(C)=O)C(N)=O [peptide IV, AcC(Acm)-VIGYSGD-[Cit]-C-(Acm)-NH2] (Ac-C(Acm)VIGYSGD[Cit]C(Acm)-NH2) | increased both receptor binding and inhibition of attachment to laminin substrata |  |  | resistance to trypsin / trypsin-like proteases [3]: resistant to cleavage by trypsin-like proteases
mEGF(33-42) analogue, isoleucine (P6) for serine; acetyl-Cys(ACM)-Val-Ile-Gly-Tyr-Ile-Gly-Asp-Arg-Cys(ACM)-NH2 (Ac-C(Acm)VIGYIGDRC(Acm)-NH2; SMILES CC[C@H](C)[C@H](NC(=O)[C@H](Cc1ccc(O)cc1)NC(=O)CNC(=O)[C@@H](NC(=O)[C@@H](NC(=O)[C@H](CSCNC(C)=O)NC(C)=O)C(C)C)[C@@H](C)CC)C(=O)NCC(=O)N[C@@H](CC(=O)O)C(=O)N[C@@H](CCCNC(=N)N)C(=O)N[C@@H](CSCNC(C)=O)C(N)=O) [peptide I] | reduced receptor affinity | both reduced receptor affinity and potency in displacement of cell adhesion to laminin | weak antagonist activities | 
laminin | equipotent |  |  | 
peptide II: mEGF(33-42) analogue, aspartate (P8) replaced with serine (CVIGYSGSRC) |  |  |  | biological function (receptor binding, adhesion, motility) [5]: complete loss of biological function
peptide III: mEGF(33-42) analogue with both isoleucine (P6) for serine and serine (P8) for aspartate (CVIGYIGSRC) |  |  |  | biological function (receptor binding, adhesion, motility) [5]: complete loss of biological function
Acetyl-C-[S-Acm]-VIGYSGDR-C-[S-Acm]NH2 (Ac-C(Acm)VIGYSGDRC(Acm)-NH2) [mEGF(33-42), capped synthetic peptide of residues 33 to 42 of murine epidermal growth factor, 67LR antagonist] | equipotent |  | antagonist | basal and EGF-stimulated motility of primary and established endothelial cells [6]: blocking the basal and EGF-stimulated motility; angiogenic effects of laminin [7]: inhibits the angiogenic effects of laminin; EGF-stimulated angiogenic response in the early chick [8]: inhibit the EGF-stimulated angiogenic response; receptor that mediates the anti-angiogenic effects ([9]; 67-LR versus EGF receptor): mediated solely through the high affinity 67 kDa laminin receptor (67-LR) and not through the EGF receptor; binding to the 67 kDa laminin receptor ([9]; biotinylated derivative of the peptide on streptavidin plates): bound to the 67 kDa laminin receptor
CVIGYAGDRC [X, alanine scan of mEGF(33-42): Ala for Ser (P6)] | dramatic decrease in receptor affinity | parallel decrease in their ability to block adhesion to laminin |  | 
CVIGYSGDRA [peptide IX, alanine scan of mEGF(33-42): alanine for cysteine at P10] | retains both receptor binding and adhesion displacing activities | retains both receptor binding and adhesion displacing activities | has the agonism of Lam.β-1(925-933) | 
AVIGYSGDRC [peptide VIII, alanine scan of mEGF(33-42): alanine for cysteine (P1)] | dramatic decrease in receptor affinity | parallel decrease in their ability to block adhesion to laminin | weak laminin agonist | 
CVAGYSGDRC [peptide VI, alanine scan of mEGF(33-42): Ala for Ile] | dramatic decrease in receptor affinity | parallel decrease in their ability to block adhesion to laminin |  | 
peptide V: mEGF(33-42) analogue, tyrosine (P5) substituted with Tic-OH (CVIG[Tic‑OH]SGDRC; cysteine pairing not given here) | both receptor binding and adhesion responses were retained | both receptor binding and adhesion responses were retained | agonist | 
